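Five compound concentrations were applied to cells in 96-well plates for 48 hours; endpoints were derived by simple linear interpolation of the resulting dose-response curve. TGI: total growth inhibition.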
Columns and labels:
Assay in all cases: growth of human tumour cells (NCI), 48 h
CCRF-CEM leukemia = tested on: CCRF-CEM leukemia
COLO 205 colon = tested on: COLO 205 colon
HL-60(TB) leukemia = tested on: HL-60(TB) leukemia
HT29 colon = tested on: HT29 colon
IGROV1 ovarian = tested on: IGROV1 ovarian
K-562 leukemia = tested on: K-562 leukemia
KM12 colon = tested on: KM12 colon
LXFL 529 NSCLC = tested on: LXFL 529 NSCLC
M19-MEL melanoma = tested on: M19-MEL melanoma
NCI-H226 lung = tested on: NCI-H226 lung
NCI-H522 lung = tested on: NCI-H522 lung
OVCAR-3 ovarian = tested on: OVCAR-3 ovarian
OVCAR-8 ovarian = tested on: OVCAR-8 ovarian
RPMI-8226 leukemia = tested on: RPMI-8226 leukemia
SK-MEL-5 melanoma = tested on: SK-MEL-5 melanoma
SK-OV-3 ovarian = tested on: SK-OV-3 ovarian
SW-620 colon = tested on: SW-620 colon
TK-10 renal = tested on: TK-10 renal
UACC-257 melanoma = tested on: UACC-257 melanoma
UACC-62 melanoma = tested on: UACC-62 melanoma

Question: How did the TGI (CCRF-CEM leukemia) turn out when CC(C)=CCC/C(C)=C/CC/C(C)=C/C(O)c1ccccc1 (stereo not given) was run?
Answer: 52.4 µM

Question: And the TGI (COLO 205 colon)?
Answer: 35.6 µM

Question: What about the TGI (HL-60(TB) leukemia) of the same molecule?
Answer: 43.8 µM

Question: What about the TGI (HT29 colon) of the same molecule?
Answer: 32.9 µM

Question: What about the TGI (IGROV1 ovarian) of the same molecule?
Answer: 37.2 µM

Question: What about the TGI (K-562 leukemia) of the same molecule?
Answer: > 100 µM

Question: What about the TGI (KM12 colon) of the same molecule?
Answer: 51.8 µM

Question: And the TGI (LXFL 529 NSCLC)?
Answer: 31.8 µM

Question: And the TGI (M19-MEL melanoma)?
Answer: 34.6 µM

Question: What about the TGI (NCI-H226 lung) of the same molecule?
Answer: 46.2 µM

Question: What about the TGI (NCI-H522 lung) of the same molecule?
Answer: > 10 µM

Question: What about the TGI (OVCAR-3 ovarian) of the same molecule?
Answer: 36.3 µM

Question: And the TGI (OVCAR-8 ovarian)?
Answer: 40.6 µM

Question: What about the TGI (RPMI-8226 leukemia) of the same molecule?
Answer: 49.5 µM

Question: And the TGI (SK-MEL-5 melanoma)?
Answer: 30.2 µM

Question: And the TGI (SK-OV-3 ovarian)?
Answer: 36.5 µM

Question: And the TGI (SW-620 colon)?
Answer: 38.8 µM

Question: What about the TGI (TK-10 renal) of the same molecule?
Answer: 88.4 µM

Question: And the TGI (UACC-257 melanoma)?
Answer: 35.6 µM

Question: And the TGI (UACC-62 melanoma)?
Answer: 30.9 µM

Question: With COc1ccc(C2C(Cl)C(=O)N2NC(=O)c2ccc(NC(C)=O)cc2)cc1OC (stereo not given) as the molecule, how does the TGI (CCRF-CEM leukemia) read?
Answer: > 100 µM

Question: What about the TGI (COLO 205 colon) of the same molecule?
Answer: > 100 µM

Question: And the TGI (HL-60(TB) leukemia)?
Answer: > 100 µM

Question: And the TGI (HT29 colon)?
Answer: > 100 µM

Question: What about the TGI (IGROV1 ovarian) of the same molecule?
Answer: > 100 µM

Question: And the TGI (K-562 leukemia)?
Answer: > 100 µM

Question: And the TGI (KM12 colon)?
Answer: > 100 µM

Question: What about the TGI (LXFL 529 NSCLC) of the same molecule?
Answer: > 100 µM

Question: What about the TGI (M19-MEL melanoma) of the same molecule?
Answer: > 100 µM

Question: And the TGI (NCI-H226 lung)?
Answer: > 100 µM

Question: What about the TGI (NCI-H522 lung) of the same molecule?
Answer: > 100 µM

Question: What about the TGI (OVCAR-3 ovarian) of the same molecule?
Answer: > 100 µM

Question: What about the TGI (OVCAR-8 ovarian) of the same molecule?
Answer: > 100 µM

Question: And the TGI (RPMI-8226 leukemia)?
Answer: > 100 µM

Question: And the TGI (SK-MEL-5 melanoma)?
Answer: > 100 µM

Question: What about the TGI (SK-OV-3 ovarian) of the same molecule?
Answer: > 100 µM

Question: What about the TGI (SW-620 colon) of the same molecule?
Answer: > 100 µM

Question: And the TGI (TK-10 renal)?
Answer: > 100 µM

Question: And the TGI (UACC-257 melanoma)?
Answer: > 100 µM

Question: What about the TGI (UACC-62 melanoma) of the same molecule?
Answer: > 100 µM

Question: What does the source list for CCN(CC)CCSc1nc2c([N+](=O)[O-])cccc2[nH]1?
Answer: TGI (CCRF-CEM leukemia): > 100 µM; TGI (COLO 205 colon): > 100 µM; TGI (HL-60(TB) leukemia): > 100 µM; TGI (HT29 colon): > 100 µM; TGI (IGROV1 ovarian): > 100 µM; TGI (K-562 leukemia): > 100 µM; TGI (KM12 colon): > 100 µM; TGI (LXFL 529 NSCLC): > 100 µM; TGI (M19-MEL melanoma): > 100 µM; TGI (NCI-H226 lung): > 100 µM; TGI (NCI-H522 lung): > 100 µM; TGI (OVCAR-3 ovarian): > 100 µM; TGI (OVCAR-8 ovarian): > 100 µM; TGI (RPMI-8226 leukemia): > 100 µM; TGI (SK-MEL-5 melanoma): > 100 µM; TGI (SK-OV-3 ovarian): > 100 µM; TGI (SW-620 colon): > 100 µM; TGI (TK-10 renal): > 100 µM; TGI (UACC-257 melanoma): > 100 µM; TGI (UACC-62 melanoma): > 100 µM

— PubChem BioAssay (NCI)
